According to PMC6472029, “Steroids from the Deep-Sea-Derived Fungus Penicillium granulatum MCCC 3A00475 Induced Apoptosis via Retinoid X Receptor (RXR)-α Pathway” (Marine Drugs, 2019):

Target: T1, RXRα (Homo sapiens, UniProt P19793)
T1 construct: gene RXRA; RXRα-LBD (N-terminal His-tagged)
T1 sequence (P19793 223-462 limits assumed): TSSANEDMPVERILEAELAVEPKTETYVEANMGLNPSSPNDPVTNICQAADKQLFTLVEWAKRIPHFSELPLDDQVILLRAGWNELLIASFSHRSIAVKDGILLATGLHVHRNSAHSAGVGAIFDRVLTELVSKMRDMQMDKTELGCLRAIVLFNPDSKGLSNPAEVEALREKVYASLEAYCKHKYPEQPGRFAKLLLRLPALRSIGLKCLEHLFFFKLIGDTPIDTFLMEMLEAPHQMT
Test: fluorescence quenching with purified RXRα-LBD
Format: binding

Compound | Kd
CC(=O)O[C@H]1C[C@H]2[C@H]3[C@H]([C@@H](O)C[C@]2(C)[C@H]1[C@H](C)C=C[C@H](C)C(C)C)[C@@]1(C)CC[C@H](O)CC1=C[C@@H]3O [compound 2, 16β-acetoxy-3β,7β,11β-trihydroxyergost-5,22-diene] | 13.8 µM
CC(=O)O[C@H]1C[C@H]2[C@@H]3[C@@H](O)[C@@H](O)[C@H]4C[C@@H](O)CC[C@]4(C)[C@H]3[C@@H](O)C[C@]2(C)[C@H]1[C@H](C)/C=C/[C@H](C)C(C)C [compound 6, penicisteroid A] | 12.9 µM
